Experimental data taken from patent EP0938471B1, “THE PREPARATION AND USE OF ORTHO-SULFONAMIDO ARYL HYDROXAMIC ACIDS AS MATRIX METALLOPROTEINASE AND TACE INHIBITORS” (priority 1996, dated 1998).
Like-named read-outs stand apart in the source and are kept apart here.

How the values were obtained:
Type in all cases: biochemical
MMP-1 = molecular target: T1, MMP-1 (Homo sapiens, UniProt P03956); test: MMP-1 inhibition (thiopeptide or fluorescent peptide substrate assay); conditions: for inhibition at 1 µM: read-out: MMP-1 % inhibition, footnote: 1µM; for IC50: read-out: MMP-1 IC50; for MMP-1 % inhibition: concentration given as (10), unit not given
T1 sequence (P03956 100-469): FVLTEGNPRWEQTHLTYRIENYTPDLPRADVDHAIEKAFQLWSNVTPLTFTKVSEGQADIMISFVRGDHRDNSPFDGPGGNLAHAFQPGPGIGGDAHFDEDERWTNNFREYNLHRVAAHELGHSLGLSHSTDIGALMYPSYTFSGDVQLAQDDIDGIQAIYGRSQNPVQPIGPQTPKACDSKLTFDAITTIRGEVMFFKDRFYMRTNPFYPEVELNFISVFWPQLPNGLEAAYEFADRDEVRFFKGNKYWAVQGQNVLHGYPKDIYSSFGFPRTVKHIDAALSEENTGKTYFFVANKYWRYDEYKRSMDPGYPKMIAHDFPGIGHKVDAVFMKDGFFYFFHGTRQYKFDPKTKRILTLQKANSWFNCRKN

MMP-9 = MMP-9 (Homo sapiens, UniProt P14780); test: MMP-9 inhibition (thiopeptide or fluorescent peptide substrate assay); conditions: for inhibition at 1 µM: read-out: MMP-9 % inhibition, footnote: 1µM; for IC50: read-out: MMP-9 IC50
Sequence of MMP-9 (P14780 94-707): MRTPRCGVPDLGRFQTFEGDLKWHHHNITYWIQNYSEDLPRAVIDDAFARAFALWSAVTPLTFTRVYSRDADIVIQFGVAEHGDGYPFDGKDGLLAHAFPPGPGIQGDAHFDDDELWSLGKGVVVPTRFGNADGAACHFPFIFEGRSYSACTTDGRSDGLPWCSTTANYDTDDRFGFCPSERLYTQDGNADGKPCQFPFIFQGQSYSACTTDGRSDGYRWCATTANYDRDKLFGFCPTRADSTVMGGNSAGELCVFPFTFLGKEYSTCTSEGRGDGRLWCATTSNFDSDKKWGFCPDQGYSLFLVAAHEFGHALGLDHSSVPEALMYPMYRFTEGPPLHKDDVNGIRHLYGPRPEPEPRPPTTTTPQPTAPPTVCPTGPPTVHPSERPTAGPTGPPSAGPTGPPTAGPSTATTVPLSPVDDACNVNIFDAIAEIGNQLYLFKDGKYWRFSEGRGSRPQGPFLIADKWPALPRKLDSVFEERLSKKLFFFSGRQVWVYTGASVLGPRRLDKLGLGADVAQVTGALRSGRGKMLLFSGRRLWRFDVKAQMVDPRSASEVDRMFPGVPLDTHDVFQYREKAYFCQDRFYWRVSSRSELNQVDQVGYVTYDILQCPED

MMP-13 = MMP-13 (Homo sapiens, UniProt P45452); test: MMP-13 inhibition (thiopeptide or fluorescent peptide substrate assay); conditions: for inhibition at 1 µM: read-out: MMP-13 % inhibition, footnote: 1µM
TACE = TACE (Homo sapiens, UniProt P78536); test: TACE inhibition (fluorescent peptidyl substrate); conditions: for inhibition at 1 µM: at 1µM concentration
Sequence of TACE (P78536 215-824): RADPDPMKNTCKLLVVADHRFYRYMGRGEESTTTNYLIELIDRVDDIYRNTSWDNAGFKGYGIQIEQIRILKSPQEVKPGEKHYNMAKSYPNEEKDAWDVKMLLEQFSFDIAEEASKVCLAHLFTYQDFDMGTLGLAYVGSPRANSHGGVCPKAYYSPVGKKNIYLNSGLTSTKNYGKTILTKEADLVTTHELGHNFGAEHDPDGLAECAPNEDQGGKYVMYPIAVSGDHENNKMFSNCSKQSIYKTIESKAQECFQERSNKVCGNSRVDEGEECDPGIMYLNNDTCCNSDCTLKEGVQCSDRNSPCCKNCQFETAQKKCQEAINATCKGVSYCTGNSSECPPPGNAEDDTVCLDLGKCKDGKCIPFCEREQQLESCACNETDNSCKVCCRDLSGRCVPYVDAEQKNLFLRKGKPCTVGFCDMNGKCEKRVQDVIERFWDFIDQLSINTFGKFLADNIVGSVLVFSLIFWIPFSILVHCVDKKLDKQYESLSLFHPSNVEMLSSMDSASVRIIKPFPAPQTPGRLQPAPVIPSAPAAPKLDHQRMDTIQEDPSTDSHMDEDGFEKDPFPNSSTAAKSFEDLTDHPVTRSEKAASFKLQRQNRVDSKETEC

| Structure (SMILES) | inhibition at 1 µM (MMP-1) [%] | inhibition at 1 µM (MMP-9) [%] | inhibition at 1 µM (MMP-13) [%] | IC50 (TACE; read-out: TACE IC50) [µM] | IC50 (MMP-1) [µM] | IC50 (MMP-9) [µM] | IC50 (MMP-13) [µM] | IC50 (TACE) [µM] | IC50 (MMP-13; read-out: MMP-13 IC50) [µM] | inhibition at 1 µM (TACE) [%] | MMP-1 % inhibition (MMP-1) |
| --- | --- | --- | --- | --- | --- | --- | --- | --- | --- | --- | --- |
| Cc1cc(Br)cc(C(=O)NO)c1N(Cc1ccccc1)S(=O)(=O)c1ccc(OCc2ccccc2)cc1 [Example 308] | 10 | 45 | 36 | 0.285 |  |  |  |  |  |  |  |
| COc1ccc(S(=O)(=O)N(C)c2c(CN3CCCC3)cccc2C(=O)NO)cc1 [Example 310, N-Hydroxy-2-[(4-methoxy-benzenesulfonyl)-methyl-amino]-3-pyrrolidin-1-ylmethyl-benzamide] |  |  |  | 0.154 | 4.8 | 0.021 |  |  | 0.101 |  |  |
| COc1ccc(S(=O)(=O)N(Cc2cccnc2)c2c(CN3CCCC3)cccc2C(=O)NO)cc1 [Example 320, N-Hydroxy-2-[(4-methoxy-benzenesulfonyl)-pyridin-3-ylmethyl-amino]-3-pyrrolidin-1-ylmethyl-benzamide] |  |  |  | 0.142 | 2.19 | 0.046 |  |  | 0.15 |  |  |
| COc1ccc(S(=O)(=O)N(Cc2ccccc2)c2c(OCCO[Si](C)(C)C(C)(C)C)cccc2C(=O)NO)cc1 [Example 344, 2-[Benzyl-(4-methoxy-benzenesulfonyl)-amino]-3-[2-(tert-butyl-dimethyl-silanyloxy)-ethoxy]-N-hydroxy-benzamide] |  |  |  | 0.529 | 1.17 | 0.069 |  |  | 0.32 |  |  |
| COc1ccc(S(=O)(=O)N(Cc2ccccc2)c2c(OCCO)cccc2C(=O)NO)cc1 [Example 345, 2-[Benzyl-(4-methoxy-benzenesulfonyl)-amino]-N-hydroxy-3-(2-hydroxy-ethoxy)-benzamide] |  |  |  | 0.523 | 1.16 | 0.031 |  |  | 0.134 |  |  |
| COc1ccc(S(=O)(=O)N(C)c2c(C)cc(C#Cc3ccc(-c4ccccc4)cc3)cc2C(=O)NO)cc1 [Example 353, 5-Biphenyl-4-ylethynyl-N-hydroxy-2-[(4-methoxy-benzenesulfonyl)-methyl-amino]-3-methyl-benzamide] | 23 |  |  | 0.78 |  | 0.061 |  |  | 0.141 |  |  |
| COc1ccc(S(=O)(=O)N(C)c2c(C)cc(CCc3ccc(-c4ccccc4)cc3)cc2C(=O)NO)cc1 [Example 355, 5-(2-Biphenyl-4-yl-ethyl)-N-hydroxy-2-[(4-methoxy-benzenesulfonyl)-methyl-amino]-3-methyl-benzamide] |  |  |  | 0.288 | 0.701 | 0.028 |  |  | 0.02 |  |  |
| CCCCCCCCCCC#Cc1cc(C)c(N(C)S(=O)(=O)c2ccc(OC)cc2)c(C(=O)NO)c1 [Example 358, 5-Dodec-1-ynyl-N-hydroxy-2-[(4-methoxy-benzenesulfonyl)-methyl-amino]-3-methyl-benzamide] |  |  |  | 1.05 |  | 0.101 |  |  | 0.107 |  | 25%(10) |
| CCCCCCCCCCCCc1cc(C)c(N(C)S(=O)(=O)c2ccc(OC)cc2)c(C(=O)NO)c1 [Example 360, 5-Dodecyl-N-hydroxy-2-[(4-methoxy-benzenesulfonyl)-methyl-amino]-3-methyl-benzamide] |  |  |  | 1.4 |  | 0.525 |  |  | 1.26 |  | 14%(10) |
| COCc1cccc(C(=O)NO)c1N(Cc1cccnc1)S(=O)(=O)c1ccc(OC)cc1 [Example 363, N-Hydroxy-2-[(4-methoxy-benzenesulfonyl)-pyridin-3-ylmethyl-amino]-3-methoxymethyl-benzamide] |  |  |  | 0.137 | 0.449 | 0.02 |  |  | 0.054 |  |  |
| COc1ccc(S(=O)(=O)N(Cc2cccnc2)c2c(C(=O)NO)cccc2C(=O)OC(C)(C)C)cc1 [Example 367, N-Hydroxy-2-[(4-methoxy-benzenesulfonyl)-pyridin-3-ylmethyl-amino]-isophthalamic acid tert-butyl ester] |  |  |  | 2.7 | 0.597 | 0.012 |  |  | 0.013 |  |  |
| COC(=O)c1cccc(C(=O)NO)c1N(C)S(=O)(=O)c1ccc(OC)cc1 [Example 373, N-Hydroxy-2-[(4-methoxy-benzenesulfonyl)-methyl-amino]-isophthalamic acid methyl ester] |  |  |  | 0.539 | 1.28 | 0.026 |  |  | 0.059 |  |  |
| COc1ccc(S(=O)(=O)N(Cc2cccnc2)c2c(C(=O)O)cccc2C(=O)NO)cc1 [Example 374, N-Hydroxy-2-[(4-methoxy-benzenesulfonyl)-pyridin-3-ylmethyl-amino]-isophthalamic acid] |  | 36 | 17 |  |  |  |  |  |  | 29 | 56%(10) |

Continued, values first:

| inhibition at 1 µM (MMP-1) [%] | inhibition at 1 µM (MMP-9) [%] | inhibition at 1 µM (MMP-13) [%] | IC50 (TACE; read-out: TACE IC50) [µM] | IC50 (MMP-1) [µM] | IC50 (MMP-9) [µM] | IC50 (MMP-13) [µM] | IC50 (TACE) [µM] | IC50 (MMP-13; read-out: MMP-13 IC50) [µM] | inhibition at 1 µM (TACE) [%] | MMP-1 % inhibition (MMP-1) | Structure (SMILES) |
| --- | --- | --- | --- | --- | --- | --- | --- | --- | --- | --- | --- |
|  |  |  |  | 0.608 | 0.005 | 0.014 | 0.174 |  |  |  | COc1ccc(S(=O)(=O)N(C)c2c(CN3CCOCC3)cccc2C(=O)NO)cc1 [Example 309, N-Hydroxy-2-[(4-methoxy-benzenesulfonyl)-methyl-amino]-3-morpholin-4-ylmethyl-benzamide] |
|  |  |  |  | 0.781 | 0.01 | 0.043 | 0.157 |  |  |  | COc1ccc(S(=O)(=O)N(C)c2c(Cn3ccnc3)cccc2C(=O)NO)cc1 [Example 311, N-Hydroxy-3-imidazol-1-ylmethyl-2-[(4-methoxy-benzenesulfonyl)-methyl-amino]-benzamide] |
|  |  |  | 0.027 | 0.954 | 0.0084 |  |  | 0.013 |  |  | COc1ccc(S(=O)(=O)N(C)c2c(CN3CCCC3)cc(Br)cc2C(=O)NO)cc1 [Example 314, 5-Bromo-N-hydroxy-2-[(4-methoxy-benzenesulfonyl)-methylamino]-3-pyrrolidin-1-ylmethyl-benzamide] |
| 15 | 49 | 60 | 1.64 |  | 0.0024 |  |  | 0.0019 | 47 |  | CCCCCCCCN(c1c(CN2CCN(C)CC2)cccc1C(=O)NO)S(=O)(=O)c1ccc(OC)cc1 [Example 325, N-Hydroxy-2-[(4-methoxy-benzenesulfonyl)-octyl-amino]-3-(4-methyl-piperazin-1-ylmethyl)-benzamide] |
|  |  |  | 0.263 | 0.326 | 0.0049 |  |  | 0.013 |  |  | COc1ccc(S(=O)(=O)N(Cc2ccsc2)c2c(CN3CCN(C)CC3)cccc2C(=O)NO)cc1 [Example 328, N-Hydroxy-2-[(4-methoxy-benzenesulfonyl)-thiophen-3-ylmethyl-amino]-3-(4-methyl-piperazin-1-ylmethyl)-benzamide] |
|  |  |  | 0.173 | 0.319 | 0.0061 |  |  | 0.023 |  |  | COc1ccc(S(=O)(=O)N(Cc2ccccc2)c2c(CN3CCN(C)CC3)cccc2C(=O)NO)cc1 [Example 329, N-Hydroxy-2-[[(4-methoxyphenyl)sulfonyl](phenylmethyl)-amino]-3-[(4-methyl-1-piperazinyl)methyl]benzamide] |
|  |  |  | 0.564 | 0.216 | 0.0052 |  |  | 0.0057 |  |  | COc1ccc(S(=O)(=O)N(Cc2cccnc2)c2c(COC3CCCCO3)cccc2C(=O)NO)cc1 (centres unmarked) [Example 339, N-Hydroxy-2-[(4-methoxy-benzenesulfonyl)-pyridin-3-ylmethyl-amino]-3-(tetrahydro-pyran-2-yloxymethyl)-benzamide] |
|  |  |  | 0.11 | 0.522 | 0.011 |  |  | 0.03 |  |  | COc1ccc(S(=O)(=O)N(Cc2cccnc2)c2c(CO)cccc2C(=O)NO)cc1 [Example 340, N-Hydroxy-3-hydroxymethyl-2-[(4-methoxy-benzenesulfonyl)-pyridin-3-ylmethyl-amino]-benzamide] |
|  |  |  | 0.032 | 0.396 | 0.008 |  |  | 0.009 |  |  | COc1ccc(S(=O)(=O)N(C)c2c(CCC(=O)NO)cc(Br)cc2C(=O)NO)cc1 [Example 349, 5-Bromo-N-hydroxy-3-[2-(hydroxycarbamoyl)-ethyl]-2-[(4-methoxy-benzenesulfonyl)-methyl-amino]-benzamide] |
|  |  |  | 0.373 | 0.45 | 0.005 |  |  | 0.021 |  |  | COc1ccc(S(=O)(=O)N(C)c2c(CCC(=O)NO)cccc2C(=O)NO)cc1 [Example 350] |
|  |  |  | 0.356 | 0.329 | 0.0071 |  |  | 0.018 |  |  | COc1ccc(S(=O)(=O)N(Cc2ccccn2)c2c(C)cccc2C(=O)NO)cc1 [Example 375, N-Hydroxy-2-[(4-methoxy-benzenesulfonyl)-pyridin-2-ylmethyl-amino]-3-methyl-benzamide] |
|  |  |  | 0.645 | 0.391 | 0.0084 |  |  | 0.018 |  |  | COc1ccc(S(=O)(=O)N(Cc2ccncc2)c2c(C)cccc2C(=O)NO)cc1 [Example 376, N-Hydroxy-2-[(4-methoxy-benzenesulfonyl)-pyridin-4-ylmethyl-amino]-3-methyl-benzamide] |
|  |  |  | 0.258 | 0.123 | 0.0047 |  |  | 0.015 |  |  | CCN(CC)Cc1ccc(CN(c2c(C)cccc2C(=O)NO)S(=O)(=O)c2ccc(OC)cc2)cc1 [Example 377, 2-[(4-Diethylaminomethyl-benzyl)-(4-methoxy-benzenesulfonyl)-amino]-N-hydroxy-3-methyl-benzamide] |
